Data from publication PMC3170320, “Minimal Antizyme Peptide Fully Functioning in the Binding and Inhibition of Ornithine Decarboxylase and Antizyme Inhibitor” (PLoS ONE, 2011).
“Also recorded” adds a separate entry of the source.

Assays:
[1] = target: human ODC (equilibrated with equimolar AZI); experiment: ODC enzyme activity inhibition by AZ peptides in the presence of AZI; type: biochemical; details: for IC50 (with AZI)/IC50 (without AZI): ratio with/without equimolar AZI
Protocol: AZ has a greater affinity for AZI than ODC, such that the formation of an AZ-AZI heterodimer will release the ODC monomer from an AZ-ODC complex and rapidly restore ODC enzyme activity. Here, we examined the inhibition of ODC enzyme activity by AZ peptides in the presence of AZI. The ODC enzyme was first pre-incubated with AZI, keeping the molar ratio of AZI monomer/ODC monomer at unity. […] Table 1 illustrates the IC50 values of the AZ peptides in the presence of AZI, showing that all of the IC50 values for the AZ peptides with AZI were larger than the values without AZI.
Figure 4 Relative ODC enzyme activities in the presence of AZ and AZI. ODC enzymes equilibrated with equimolar AZI were inhibited by various concentrations of AZ peptides. The concentrations of AZI and ODC were fixed at 18.9 µg/mL and 20 µg/mL, respectively (the ratio of AZI monomer versus ODC monomer was fixed at 1). Panels A–H show the inhibition curves of ODC for each AZ peptide in the absence (closed circles) and in the presence (open circles) of AZI.
(§1) The ODC enzyme activity was determined using a CO2-L3K assay kit (DCL, Charlottetown, Canada) at 37°C. The continuous measurement of ODC enzyme activity was coupled to the carboxylation of PEP to oxaloacetate and the oxidation of oxaloacetate to malate, as previously reported. The reaction mixture contains 30 mM Tris-HCl at pH 7.8, 10 mM ornithine, 0.2 mM […] and 0.4 ml of the CO2-L3K assay kit solution, which contains 12.5 mM PEP, >0.4 U/ml phosphoenolpyruvate carboxylase (microbial), >4.1 U/ml malate dehydrogenase (mammalian) and 0.6 mM NADH analog in a final volume of 0.5 ml.
(§2) To evaluate the inhibitory effect of AZ, the inhibited ODC enzyme activity versus [AZ] was fitted with the following equation to estimate the IC50 value: [drawing 1] where A and B are the minimum and maximum ODC enzyme activity, respectively, and the Hill slope gives the largest slope of the curve. The IC50 value represents the concentration of AZ required for 50% inhibition of ODC enzyme activity. All of the calculations were done using the SigmaPlot 10.0 software program (Jandel, San Rafael, CA).

human ODC [2] = experiment: ODC enzyme activity inhibition by AZ peptides (without AZI); type: biochemical; details: for IC50 (AZ peptide)/IC50 (AZ_WT): ratio to AZ_WT; for IC50: ODC fixed at 20 µg/mL (0.19 µM), CO2-L3K coupled assay, 405 nm, 37°C, 30 mM Tris-HCl pH 7.8, 10 mM ornithine, 0.2 mM PLP, fit of inhibition curves; for ODC inhibition ability (in words): relative ODC activity, Figure 2
Protocol: Figure 2 Relative ODC enzyme activity in the presence of AZ peptides. The activity of ODC was inhibited by various concentrations of AZ peptides. ODC concentrations were fixed at 20 µg/mL (0.19 µM). The IC50 values of AZ peptides shown in Table 1 were derived from fitting these inhibition curves. The molar ratio refers to AZ peptide versus ODC monomer.
as §1
For the AZ inhibition experiment, the ODC enzyme (0.19 µM) and various amounts of AZ were added to the reaction mixture. The reaction was started after the ODC was added, and the absorbance decrease at 405 nm was continuously traced using a Perkin-Elmer Lamba-25 spectrophotometer. In this coupled reaction, the production of 1 mol of CO2 was concomitant with the oxidation of 1 mol of NADH analog. An extinction coefficient of 2410 M ^−1 was used for the NADH analog in the calculations.
as §2

human ODC [3] = experiment: AZ peptide-ODC complex size distribution by analytical ultracentrifugation; type: binding; details: for K d,AZ-ODC fold higher than that of AZ_WT: ratio to AZ_WT
Protocol: AZ binds ODC, dissociates the ODC dimer and then inactivates the enzyme, [20]. […] In order to determine the differential binding affinity of these AZ peptides toward ODC, the size distributions of ODC with different concentrations of AZ peptides were analyzed. All sedimentation data were globally fitted with the AB hetero-association model in the SEDPHAT program to obtain the dissociation constant (K d) between ODC and AZ (Figure 3 and Table 2).
Figure 3 Continuous sedimentation coefficient distribution of human ODC in the presence of AZ peptide. The concentration of ODC was fixed at 0.3 mg/mL with concentrations of AZ ranging from 0.015 to 0.2 mg/mL (the molar ratio of AZ/ODC ranged from 0.12 to 2) in a buffer of 30 mM Tris-HCl (pH 7.4) and 25 mM NaCl at 20°C. The sedimentation velocity data were globally fitted with the SEDTHAT program to obtain K d values for the AZ peptide-ODC complex (Table 2).
A Beckman Optima XL-A analytical ultracentrifuge was used for sedimentation velocity experiments. Reference and sample sectors in the centerpiece were filled with buffer (400 µl) and sample protein (0.3 mg/mL, 380 µl), respectively, and then the cell was built up in an An-50 Ti rotor. Sedimentation velocity experiments were performed at 20°C with a rotor speed of 42,000 rpm. The data were traced by absorbance at 280 nm in continuous mode, with a time interval of 420 s and a step size of 0.002 cm. A total of 20–30 scans at different time points were collected and fitted to a continuous size distribution model using the program SEDFIT [54]–[55]. All size distributions were calculated at 0.1 to 20 S with a confidence level of p = 0.95 and a resolution N of 200.
In order to determine the dissociation constants (K d) of the AZ peptide-ODC and AZ peptide-AZI complexes, sedimentation velocity experiments were performed at different concentrations of AZ or AZ peptide with a constant concentration of human ODC or AZI. The K d values of the AZ peptide-ODC and AZ peptide-AZI complexes were calculated by a global fitting of all sedimentation data in the AB hetero-association model in the SEDPHAT program [56]–[57]. The partial specific volumes of the proteins, the solvent densities, and the viscosity were calculated by the SEDNTERP program.

Substance	IC50 (with AZI)/IC50 (without AZI) [1]	IC50 (AZ peptide)/IC50 (AZ_WT) (human ODC [2])	IC50 (human ODC [2]) [nM]	ODC inhibition ability (in words) (human ODC [2])	K d,AZ-ODC fold higher than that of AZ_WT (human ODC [3]) [fold]	Size distribution of ODC in the presence of AZ (in words) (human ODC [3]; sedimentation velocity, 20°C, Figure 3)	Inhibition of ODC with AZI relative to AZ_WT or to without AZI (in words) ([1]; equimolar AZI, Figure 4)
AZ_87-124: truncated human AZ protein, residues 87-124	3.0	3.2	–	–	–	–	–
AZ_87-228: truncated human AZ protein, residues 87-228	–	1.1	170	–	–	–	–
AZ_95-124: truncated human AZ protein, residues 95-124	3.0	4.0	–	–	–	–	–
AZ_95-135: truncated human AZ protein, residues 95-135	3.1	3.2	–	–	–	–	–
AZ_95-169: truncated human AZ protein, lacking β-strand 6, residues 95-169	–	2.3	370	displayed a noteworthy decrease in ODC inhibition ability	–	–	–
AZ_95-176: minimal AZ peptide fully functioning in the binding of ODC and AZI, residues 95-176	3.4	1.2	–	retained most of the inhibition ability	7.8	–	–
AZ_95-228: truncated human AZ protein, residues 95-228	3.5	1.0	–	also similar to that of AZ_WT	2.1	–	–
AZ_100-124: truncated human AZ protein, residues 100-124	–	5.0	820	notably weaker inhibition ability than AZ_100-228	–	–	–
AZ_100-135: truncated human AZ protein, residues 100-135	–	5.3	860	notably weaker inhibition ability than AZ_100-228	–	–	–
AZ_100-176: truncated human AZ protein, residues 100-176	3.3	2.6	–	had a lower inhibition ability than that of AZ_100-228; also recorded: not as good as that of AZ_95-176 or AZ_100-228	–	–	–
AZ_100-228: truncated human AZ protein, residues 100-228	3.0	1.3	–	–	7.5	–	–
AZ_106-228: truncated human AZ protein, residues 106-228	–	2.3	370	weaker inhibition ability than AZ_100-228	–	–	–
AZ_114-228: truncated human AZ protein, residues 114-228	–	6.0	970	–	–	–	–
AZ_126-228: truncated human AZ protein, residues 126-228	–	7.3	1190	–	–	–	–
AZ_152-228: truncated human AZ protein, residues 152-228	–	–	–	almost no ODC inhibition, even at high concentrations of AZ	–	–	–
AZ_177-228: truncated human AZ protein, residues 177-228 (HKNREDRAALLRTFSFLGFEIVRPGHPLVPKRPDACFMAYTFERESSGEEEE; UniProt P54368 177-228, looked up, fragment)	–	–	–	almost no ODC inhibition, even at high concentrations of AZ; also recorded: displays no inhibition of ODC activity	–	–	–
Antizyme [AZ_WT]	3.1	1.0	–	–	–	disrupted dimeric ODC to form AZ-ODC complexes	lower than in the absence of AZI
